Assays:
Aurora A = target: T1, Aurora A (Homo sapiens, UniProt O14965); test: IC50 determination for inhibitors of Aurora A (96 MTP-ELISA); assay type: biochemical; conditions: His4-tagged full-length Aurora A 250 ng/ml, PKB-GSK2 200 nM, ATP 4 μM, 90 min at room temperature; read-out: IC50 Aurora A kinase inhibition
T1 construct: C-terminally Histidine4 (His4)-tagged Aurora A full-length protein
T1 sequence (O14965 1-403): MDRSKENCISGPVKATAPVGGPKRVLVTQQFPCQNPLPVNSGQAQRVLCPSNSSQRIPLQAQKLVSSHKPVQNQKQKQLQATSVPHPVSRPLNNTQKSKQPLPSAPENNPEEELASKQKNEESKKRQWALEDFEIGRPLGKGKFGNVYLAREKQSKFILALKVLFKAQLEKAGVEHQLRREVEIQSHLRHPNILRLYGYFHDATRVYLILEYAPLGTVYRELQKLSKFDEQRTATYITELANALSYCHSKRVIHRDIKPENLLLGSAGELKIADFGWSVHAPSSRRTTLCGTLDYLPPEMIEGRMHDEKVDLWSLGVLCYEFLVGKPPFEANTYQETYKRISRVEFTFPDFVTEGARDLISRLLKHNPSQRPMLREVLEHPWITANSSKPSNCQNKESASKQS
Excerpt: IC50 Determination for Inhibitors of Aurora A
Aurora A is a serine threonine kinase involved in spindle assembly and chromosome segregation.
The assay is a typically ELISA-type assay where biotinylated substrate (PKB-GSK2) is phosphorylated. Phosphorylation is detected by peroxidase (POD) labelled polyclonal antibody (PAK<M-Ig>S-IgG-POD) and phosphopeptide monoclonal antibody (Mab) (MAK<P-GSK>M-27E5-IgG). The assay is validated for IC50-determination.
Aurora A-His-4 C-terminally Histidine4 (His4)-tagged Aurora A full-length protein, stock solution 0.7 mg/ml, final conc.: 250 ng/ml
PKB-GSK2 biotinylated peptide derived from human GSK3-alpha sequence (Biotin-SGRARTSSFAEPGG-CONH2), stock solution 600 μM, final conc.: 200 nM
ATP Adenosine-5′-triphosphate 1 mM, diluted in kinase buffer, (Roche Diagnostics GmbH, Cat. No.: 127531-001,), final conc.: 4 μM
Kinase buffer 50 mM TRIS, 10 mM MgCl2, 1 mM DTT, 0.1% Tween 20, pH 7.8
This assay is performed in 96-well format for IC50 determination with 5 samples (each with 8 concentrations by twofold testing), 100 μl incubation volume and the following plate layout:
Step/Action 1. Sample preparation: add 24 μl per well samples (descending sequence) diluted in kinase buffer to assay plate (final conc. for DMSO 1%). 2. Add directly 16 μl Aurora-A-his-4 diluted in kinase buffer to assay plate. 3. Add directly 40 μl per well PKB-GSK2/ATP mixture to assay plate, (final conc.: Aurora A=250 ng/ml, GSK2=200 nM, ATP=4 μM). Negative control: without ATP. 4. Incubate assay plate for exactly 90 min at room temperature. 5. Stop reaction by adding 20 μl EDTA in all wells. 6. Wash assay plate 3× with 200 μl washing buffer per well. 7. Add 100 μl MAK<P-GSK>M27E5-IgG (1:10000) and PAK<M-Ig>S-IgG-POD (1:6000) dissolved in 3% BSA/PBS-T to assay plate per well. 8. Incubate assay plate for 60 min at room temperature. 9. Wash assay plate 3× with 200 μl washing buffer per well 10. Add 100 μl ABTS solution to assay plate per well, incubate for approx. 4 min at RT on MTP shaker. 11. Measure absorption at 405/492 nm. 12. Calculate % inhibition as: (1−(Esample−ENC)/(EPC−ENC))×100 13. Calculate IC50 using a non-linear curve fit (XLfit software (ID Business Solution Ltd., Guilford, Surrey, UK))

HCT 116 cells = test: CellTiter-Glo assay in HCT 116 cells (antiproliferative activity); assay type: cell-based; conditions: HCT 116 human colon carcinoma cells, 5 days (120 h) incubation, CellTiter-Glo luminescence
Excerpt: Antiproliferative Activity
CellTiter-Glo™ Assay in HCT 116 Cells
The CellTiter-Glo™ Luminescent Cell Viability Assay (Promega) is a homogeneous method of determining the number of viable cells in culture based on quantitation of the ATP present, which signals the presence of metabolically active cells.
HCT 116 cells (human colon carcinoma, ATCC-No. CCI-247) were cultivated in RPMI 1640 medium with GlutaMAX™ I (Invitrogen, Cat-No. 61870-010), 2.5% Fetal Calf Serum (FCS, Sigma Cat-No. F4135 (FBS)); 100 Units/ml penicillin/100 μg/ml streptomycin (=Pen/Strep from Invitrogen Cat. No. 15140). For the assay the cells were seeded in 384 well plates, 1000 cells per well, in the same medium. The next day the test compounds were added in various concentrations ranging from 30 μM to 0.0015 μM (10 concentrations, 1:3 diluted). After 5 days the CellTiter-Glo™ assay was done according to the instructions of the manufacturer (CellTiter-Glo™ Luminescent Cell Viability Assay, from Promega). In brief: the cell-plate was equilibrated to room temperature for approximately 30 minutes and than the CellTiter-Glo™ reagent was added. The contents were carefully mixed for 15 minutes to induce cell lysis. After 45 minutes the luminescent signal was measured in Victor 2, (scanning multiwell spectrophotometer, Wallac).
Medium: RPMI 1640 with GlutaMAX™ I (Invitrogen, Cat-Nr. 61870), 5% FCS (Sigma Cat.-No. F4135), Pen/Strep (Invitrogen, Cat No. 15140).
HCT116 (ATCC-No. CCI-247): 1000 cells in 60 μl per well of 384 well plate (Greiner 781098, μClear-plate white)
After seeding incubate plates 24 h at 37° C., 5% CO2
2nd. Day: Induction (Treatment with Compounds, 10 Concentrations):
In order to achieve a final concentration of 30 μM as highest concentration 3.5 μl of 10 mM compound stock solution were added directly to 163 μl media. Then step e) of the dilution procedure described below, was followed.
In order to achieve the second highest to the lowest concentrations, a serial dilution with dilution steps of 1:3 was followed according to the procedure (a-e) as described here below: • for the second highest concentration add 10 μl of 10 mM stock solution of compound to 20 μl dimethylsulfoxide (DMSO) • dilute 8×1:3 (always 10 μl to 20 μl DMSO) in this DMSO dilution row (results in 9 wells with concentrations from 3333.3 μM to 0.51 μM) • dilute each concentration 1:47.6 (3.5 μl compound dilution to 163 μl media) • add 10 μl of every concentration to 60 μl media in the cell plate resulting in final concentration of DMSO: 0.3% in every well and resulting in 10 final concentration of compounds ranging from 30 μM to 0.0015 μM. • Each compound is tested in triplicate. • Incubate 120 h (5 days) at 37° C., 5% CO2 Analysis:
Add 30 μl CellTiter-Glo™ Reagent (prepared from CellTiter-Glo™ Buffer and CellTiter-Glo™ Substrate (lyophilized) purchased from Promega) per well, • shake 15 minutes at room temperature • incubate further 45 minutes at room temperature without shaking Measurement:
Victor 2 scanning multiwell spectrophotometer (Wallac), Luminescence mode (0.5 sec/read, 477 nm)
Determine IC50 using a non-linear curve fit (XLfit software (ID Business Solution Ltd., Guilford, Surrey, UK))

| IC50 (Aurora A) [nM] | IC50 (HCT 116 cells) [nM] | Structure (SMILES) |
| --- | --- | --- |
| 10 to 500 | 4670 | CC(=O)N1CC(C)(C)c2cc3nc(-c4cc(C)n[nH]4)[nH]c3cc21 [Example 2, 1-[7,7-Dimethyl-2-(5-methyl-2H-pyrazol-3-yl)-6,7-dihydro-3H-imidazo[4,5-f]indol-5-yl]-ethanone] |
| 212 | 10000 to 100000 | Cc1cc(-c2nc3cc4c(cc3[nH]2)C(C)(C)CC(=O)N4)n[nH]1 [Example 3, 8,8-Dimethyl-2-(5-methyl-1H-pyrazol-3-yl)-1,5,7,8-tetrahydro-imidazo[4,5-g]quinolin-6-one] |
| 500 to 1500 | 7650 | CC(C)Cc1cc(-c2nc3cc4c(cc3[nH]2)C(C)(C)CC(=O)N4)[nH]n1 [Example 4, 2-(5-Isobutyl-2H-pyrazol-3-yl)-8,8-dimethyl-1,5,7,8-tetrahydro-imidazo[4,5-g]quinolin-6-one] |
| 10 to 500 | 100 to 10000 | Cc1cc(-c2nc3cc4c(cc3[nH]2)NC(=O)C4(C)C)n[nH]1 [Example 5, 7,7-Dimethyl-2-(5-methyl-2H-pyrazol-3-yl)-5,7-dihydro-3H-imidazo[4,5-f]indol-6-one] |
| 500 to 1500 | 100 to 10000 | CC(C)Cc1cc(-c2nc3cc4c(cc3[nH]2)C(C)(C)C(=O)N4)[nH]n1 [Example 6, 2-(5-isobutyl-2H-pyrazol-3-yl)-7,7-dimethyl-5,7-dihydro-1H-imidazo[4,5-f]indol-6-one] |
| 10 to 500 | 100 to 10000 | Cc1cc(-c2nc3cc4c(cc3[nH]2)NC(=O)C42CCCC2)[nH]n1 [Example 7, 2-(5-Methyl-2H-pyrazol-3-yl)-spiro-5,7-dihydro[cyclopentane-1′,7-imidazo[4,5-f]indol]-6(3H)-one] |
| 500 to 1500 | 10000 to 100000 | Cc1cc(-c2nc3cc4[nH]c(=O)[nH]c4cc3[nH]2)n[nH]1 [Example 9, 6-(5-Methyl-1H-pyrazol-3-yl)-3,5-dihydro-1H-benzo[1,2-d;4,5-d′]diimidazol-2-one] |
| 158 | 10000 to 100000 | Cc1cc(-c2nc3cc4[nH]c(=O)n(C(C)C)c4cc3[nH]2)n[nH]1 [Example 11, 3-Isopropyl-6-(5-methyl-1H-pyrazol-3-yl)-3,5-dihydro-1H-benzo[1,2-d;4,5-d′]diimidazol-2-one] |
| 10 to 500 | 100 to 10000 | Cc1[nH]nc(-c2nc3cc4c(cc3[nH]2)C(C)(C)C(=O)N4)c1C [Example 17, 2-(4,5-Dimethyl-1H-pyrazol-3-yl)-7,7-dimethyl-5,7-dihydro-1H-imidazo[4,5-f]indol-6-one] |
| 10 to 500 | 100 to 10000 | CC(C)CCc1cc(-c2nc3cc4c(cc3[nH]2)C(C)(C)C(=O)N4)n[nH]1 [Example 18, 7,7-Dimethyl-2-[5-(3-methyl-butyl)-1H-pyrazol-3-yl]-5,7-dihydro-1H-imidazo[4,5-f]indol-6-one] |
| 10 to 500 | 100 to 10000 | CCCc1cc(-c2nc3cc4c(cc3[nH]2)C(C)(C)CC(=O)N4)[nH]n1 [Example 23, 8,8-Dimethyl-2-(5-propyl-2H-pyrazol-3-yl)-1,5,7,8-tetrahydro-imidazo[4,5-g]quinolin-6-one] |
| 500 to 1500 | 100 to 10000 | CC1(C)CC(=O)Nc2cc3nc(-c4cc[nH]n4)[nH]c3cc21 [Example 24, 8,8-Dimethyl-2-(1H-pyrazol-3-yl)-1,5,7,8-tetrahydro-imidazo[4,5-g]quinolin-6-one] |
| 10 to 500 | 100 to 10000 | O=C1Nc2cc3[nH]c(-c4ccn[nH]4)nc3cc2C12CCCC2 [Example 27, 2-(2H-pyrazol-3-yl)-spiro-5,7-dihydro[cyclopentane-1′,7-imidazo[4,5-f]indol]-6(3H)-one] |
| 500 to 1500 | 100 to 10000 | CC(C)c1cc(-c2nc3cc4c(cc3[nH]2)NC(=O)C42CCCC2)[nH]n1 [Example 28, 2-(5-Isopropyl-2H-pyrazol-3-yl)-spiro-5,7-dihydro[cyclopentane-1′,7-imidazo[4,5-f]indol]-6(3H)-one] |
| 500 to 1500 | – | CCCc1cc(-c2nc3cc4c(cc3[nH]2)NC(=O)C42CCCC2)[nH]n1 [Example 29, 2-(5-Propyl-2H-pyrazol-3-yl)-spiro-5,7-dihydro[cyclopentane-1′,7-imidazo[4,5-f]indol]-6(3H)-one] |
| 10 to 500 | 100 to 10000 | Cc1cc(-c2nc3cc4c(cc3[nH]2)N(C)C(=O)C4(C)C)n[nH]1 [Example 31, 5,7,7-Trimethyl-2-(5-methyl-1H-pyrazol-3-yl)-5,7-dihydro-3H-imidazo[4,5-f]indol-6-one] |
| 10 to 500 | 100 to 10000 | Cc1cc(-c2nc3cc4c(cc3[nH]2)C(C)(C)C(=O)N4C(C)C)[nH]n1 [Example 34, 5-Isopropyl-7,7-dimethyl-2-(5-methyl-2H-pyrazol-3-yl)-5,7-dihydro-1H-imidazo[4,5-f]indol-6-one] |
| 10 to 500 | 100 to 10000 | CCCc1cc(-c2nc3cc4c(cc3[nH]2)C(C)(C)C(=O)N4C(C)C)[nH]n1 [Example 35, 5-Isopropyl-7,7-dimethyl-2-(5-propyl-2H-pyrazol-3-yl)-5,7-dihydro-1H-imidazo[4,5-f]indol-6-one] |
| 10 to 500 | 100 to 10000 | CCCN1C(=O)C(C)(C)c2cc3[nH]c(-c4cc(C)n[nH]4)nc3cc21 [Example 36, 7,7-Dimethyl-2-(5-methyl-2H-pyrazol-3-yl)-5-propyl-5,7-dihydro-1H-imidazo[4,5-f]indol-6-one] |

— US7285569B2, “Tricycles, their manufacture and use as pharmaceutical agents” (Hoff Hoffmann-La Roche Inc., priority 2004, dated 2007)
